Experiments:
[1] = molecular target: T1, full-length Nurr1 homodimer (NurRE) (Homo sapiens, UniProt P43354); assay: Full-length Nurr1 reporter gene assay, homodimer response element NurRE; format: cell-based
T1 construct: full-length human nuclear receptor Nurr1 encoded by pcDNA3.1 -hNurr1-NE; host or cells: HEK293T
Description: (§1) Based on these findings, we next determined the effects of 2 and 3 on Nurr1 activity in a cellular setting using reporter constructs for the NGFI-B response element (NBRE), the Nur response element (NurRE), and the direct repeat 5 (DR5)[36]. All three response elements are robustly activated by common Nurr1 agonists[4],[31]. […]
(§2) Reporter gene assays for full-length human Nurr1 and RXR. Modulation of full-length human Nurr1 (NR4A2) was studied using pRL-SV40 (1.5 ng/well reporter plasmid) and the previously described4 reporter plasmids pFR-Luc-NBRE (100 ng/well reporter plasmid), pFR-Luc-NurRE (50 ng/well reporter plasmid) or pFR-Luc-DR5 (50 ng/well reporter plasmid). […] Five hours after transfection, the cells wer e incubated with the test compounds in Opti-MEM supplemented with penicillin (100 U/mL), streptomycin (100 μg/mL), and 0.1% DMSO for 15 h before luciferase activity was measured using the Dual-Glo Luciferase Assay System (Promega) according to the manufacturer’s protocol on a Tecan Spark luminometer (Tecan Deutschland GmbH, Germany). Firefly luminescence was divided by Renilla luminescence and multiplied by 1000, resulting in relative light units (RLU) to normalize for transfection efficiency and cell growth. […]

[2] = molecular target: T2, Nurr1:RXR heterodimer (DR5) (Homo sapiens, UniProt P19793+P43354); assay: Full-length Nurr1 reporter gene assay, heterodimer response element DR5; format: cell-based; conditions: read-out: EC50, activation of the Nurr1:RXR heterodimer (DR5)
T2 construct: full-length human nuclear receptor Nurr1 encoded by pcDNA3.1 -hNurr1-NE; full length human RXRα encoded by pSG5-hRXR; host or cells: HEK293T
Description: as §1, §2

[3] = molecular target: T3, RXRγ (Homo sapiens, UniProt P48443); assay: Gal4-hybrid reporter gene assay, RXRγ; format: cell-based; conditions: Gal4-hybrid reporter gene assay; for EC50: mean±S.E.M., n≥3
T3 construct: pFA-CMV-hRXRγ-LBD; expressed in transfected cells; host or cells: HEK293T
T3 sequence (P48443 231-459 limits assumed): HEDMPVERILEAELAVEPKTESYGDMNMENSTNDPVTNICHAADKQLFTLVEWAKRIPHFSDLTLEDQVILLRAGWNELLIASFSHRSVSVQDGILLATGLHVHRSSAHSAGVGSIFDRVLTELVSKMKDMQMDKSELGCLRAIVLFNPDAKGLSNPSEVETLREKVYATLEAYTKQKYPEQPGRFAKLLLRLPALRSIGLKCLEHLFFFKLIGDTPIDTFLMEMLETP
Description: modified Eagle’s medium (DMEM), high glucose supplemented with 10% fetal calf serum (FCS), sodium pyruvate (1 mM), penicillin (100 U/mL), and streptomycin (100 μg/mL) at 37 °C and 5% CO2 and seeded in 96-well plates (3×10^4 cells/well). After 24 h, the medium was changed to Opti-MEM without supplements, and the cells were transiently transfected using Lipofectamine LTX reagent (Invitrogen) according to the manufacturer’s protocol. Five hours after transfection, the cells were incubated with the test compounds in Opti-MEM supplemented with penicillin (100 U/mL), streptomycin (100 μg/mL), and 0.1% DMSO for 15 h before luciferase activity was measured using the Dual -Glo Luciferase Assay System (Promega) according to the manufacturer’s protocol on a Tecan Spark l uminometer (Tecan Deutschland GmbH, Germany). Firefly luminescence was divided by Renilla luminescence and multiplied by 1000, resulting in relative light units (RLU) to normalize for transfection efficiency and cell growth. Fold activation was obtained by dividing the mean RLU of a sample by the mean RLU of the untreated control. All samples were tested in at least three biologically independent experiments in duplicates. For dose –response curve fitting and calculation of EC50 values, the equation “[Agonist] vs. response – Variable slope (four parameters)” was used in GraphPad Prism (version 5.04, GraphPad Software, La Jolla, CA, USA). […] (10 μM, NR4A) and bexarotene (1 µM, NR2B) served as the positive control. […]
150 μM in the same buffer containing 2-4% DMSO) in 21–26 injections (1 × 1 μL and 20 × 4 to 25 × 4 μL) with an injection interval of 120 s. As control experiments, the test compounds were titrated to the buffer, and the buffer was titrated to the protein under otherwise identical conditions. The heat rates of the compound-Nurr1 LBD titrations were analyzed using NanoAnalyze software (TA Instruments, New Castle, DE) with an independent binding model.

[4] = molecular target: T4, Nurr1 LBD (Homo sapiens, UniProt P43354); assay: Isothermal titration calorimetry, recombinant Nurr1 LBD; format: binding; conditions: ITC
T4 construct: made in house
Description: Isothermal titration calorimetry. ITC experiments for ligand binding to Nurr1 and RXR were conducted on an Affinity ITC instrument (TA Instruments, New Castle, DE) at 25 °C with a stirring rate of 75 rpm using recombinantly expressed ligand binding domain proteins as described previously5,6. The respective LBD protein (12–25 μM) in buffer (20 mM Tris pH 7.5, 100 mM NaCl, 5% glycerol) containing 2-4% DMSO was titrated with the test compounds (100-150 μM in the same buffer containing 2-4% DMSO) in 21–26 injections (1 × 1 μL and 20 × 4 to 25 × 4 μL) with an injection interval of 120 s. As control experiments, the test compounds were titrated to the buffer, and the buffer was titrated to the protein under otherwise identical conditions. The heat rates of the compound-Nurr1 LBD titrations were analyzed using NanoAnalyze software (TA Instruments, New Castle, DE) with an independent binding model.

T4 sequence (P43354 360-595 limits assumed): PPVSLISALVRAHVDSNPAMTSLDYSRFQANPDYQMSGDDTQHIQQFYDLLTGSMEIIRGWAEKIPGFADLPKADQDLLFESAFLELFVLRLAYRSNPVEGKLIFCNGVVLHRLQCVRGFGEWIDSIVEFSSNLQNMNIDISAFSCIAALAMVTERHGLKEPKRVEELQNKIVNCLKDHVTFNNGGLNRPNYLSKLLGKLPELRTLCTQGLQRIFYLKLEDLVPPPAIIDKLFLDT
T1 sequence (P43354 whole entry): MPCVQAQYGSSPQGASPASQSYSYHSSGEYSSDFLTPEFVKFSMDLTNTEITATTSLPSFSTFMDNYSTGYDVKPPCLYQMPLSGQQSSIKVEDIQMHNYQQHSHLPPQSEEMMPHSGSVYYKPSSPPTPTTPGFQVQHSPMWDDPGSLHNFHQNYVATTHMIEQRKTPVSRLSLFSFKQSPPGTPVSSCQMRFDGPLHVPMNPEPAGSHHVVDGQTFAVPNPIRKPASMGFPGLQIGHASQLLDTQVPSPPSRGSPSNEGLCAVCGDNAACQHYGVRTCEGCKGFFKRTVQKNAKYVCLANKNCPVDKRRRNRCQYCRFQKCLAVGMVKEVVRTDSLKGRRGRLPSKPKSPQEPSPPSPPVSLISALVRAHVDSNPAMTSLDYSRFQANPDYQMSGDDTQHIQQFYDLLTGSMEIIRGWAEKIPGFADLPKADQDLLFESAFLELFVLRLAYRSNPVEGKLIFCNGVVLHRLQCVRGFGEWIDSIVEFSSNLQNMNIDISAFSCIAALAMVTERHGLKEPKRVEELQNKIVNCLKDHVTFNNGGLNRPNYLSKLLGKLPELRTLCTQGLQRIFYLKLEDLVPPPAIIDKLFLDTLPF
T2 sequence (P43354 whole entry): as above
T2 sequence (P19793 whole entry): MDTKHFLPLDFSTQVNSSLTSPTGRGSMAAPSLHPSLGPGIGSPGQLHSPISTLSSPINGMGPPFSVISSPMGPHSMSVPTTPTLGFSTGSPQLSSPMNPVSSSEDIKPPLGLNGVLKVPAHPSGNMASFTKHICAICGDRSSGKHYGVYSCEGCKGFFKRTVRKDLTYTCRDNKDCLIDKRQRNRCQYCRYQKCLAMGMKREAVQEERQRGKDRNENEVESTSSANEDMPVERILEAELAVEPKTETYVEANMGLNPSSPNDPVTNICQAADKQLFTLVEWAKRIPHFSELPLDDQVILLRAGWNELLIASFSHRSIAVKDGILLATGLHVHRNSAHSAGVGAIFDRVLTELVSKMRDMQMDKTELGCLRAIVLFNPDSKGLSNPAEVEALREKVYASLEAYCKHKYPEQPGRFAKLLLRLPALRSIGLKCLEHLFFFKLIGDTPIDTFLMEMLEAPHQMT

Compound | activation on NurRE [1] | EC50 [2] [nM] | max. act. (RXR) γ [3] [fold] | EC50 [3] [nM] | Kd [4] [nM]
Cc1c(C)n(-c2ccc(CC(=O)O)cc2)c2ccc(F)cc12 [compound 3] | no activation was detectable | 600 | 67±4 | 1700 | 600
Cc1c2c(n(-c3ccc(CC(=O)O)cc3)c1C)CCC(F)(F)C2 [compound 2] | no activation was detectable | 1000 | 44±1 | 3400 | 600
